Results published in patent publication US20240325398A1, “COMBINATION THERAPIES” (Infinity Pharmaceuticals, Inc., priority 2014, published 2024).

Legend:
HH = test: Combination study, ATPLite 72 h, dose matrix (Synergy Score, CI50); assay type: cell-based; settings: combination with Compound 1
Experimental: The method is described as follows.
Additive effect is CI=1.0. […] Antagonistic effect is CI>1.0.
The Synergy Score is calculated as: […]

HBL-1 = test: as above; settings: combination with Compound 1, 72 h
Experimental: (§1) Cells are thawed from a liquid nitrogen preserved state. Once cells have been expanded and divide at their expected doubling times, screening begins. Cells are seeded in growth media in either black 1536-well or 384-well tissue culture treated plates. Cells are then equilibrated in assay plates via centrifugation and placed in incubators attached to the Dosing Modules at 37° C. for 24 hours before treatment. […] These Tzero (To) plates are read using ultra-sensitive luminescence on Envision plate readers (Perkin Elmer). Treated assay plates are incubated with compound for 72 hours. After 72 hours, plates are developed for endpoint analysis using ATPLite. All data points are collected via automated processes, quality controlled and analyzed using Zalicus software.
(§2) where T is treated cell count and V is untreated (vehicle) cell count (at 72 hours). I ranges from 0% (when T=V) to 100% (when T=0). […] The measure of effect in the experiment can be the inhibition of cellular response relative to the untreated level (vehicle alone). […] The inhibition ranges from 0% at the untreated level to 100% when T=0. Inhibition levels are negative for agents that actually increase levels. Other effect measures, such as an activity ratio r=T/V may be more appropriate for some assays. When activity ratios (e.g, fold increase over stimulated control) are being used, the effect can be measured using an induction 1=ln(T/V). With this definition, all effect expressions are the same as for inhibition.
(§3) Growth Inhibition (GI) is used as a measure of cell viability. […] A GI reading of 100% represents complete growth inhibition—T72 compound-treated and T0 vehicle signals are matched. […] A GI reading of 200% represents complete death of all cells in the culture well. Compounds reaching an activity plateau of GI 200% are considered cytotoxic. GI is calculated by applying the following test and equation:
(§4) Combination analysis data were collected in a 6×6 dose matrix. Synergy is calculated by comparing a combination's response to those of its single compound, against the drug-with-itself dose-additive reference model. Deviations from dose additivity may be assessed visually on an isobologram or numerically with a Combination Index (CI). […] Additive effect is CI=1.0. […] Antagonistic effect is CI>1.0.
(§5) To measure combination effects in excess of Loewe additivity, a scalar measure to characterize the strength of synergistic interaction termed the Synergy Score is devised. The Synergy Score is calculated as:
(§6) The fractional inhibition for each component agent and combination point in the matrix is calculated relative to the median of all vehicle-treated control wells. The Synergy Score equation integrates the experimentally-observed activity volume at each point in the matrix in excess of a model surface numerically derived from the activity of the component agents using the Loewe model for additivity. Additional terms in the Synergy Score equation (above) are used to normalize for various dilution factors used for individual agents and to allow for comparison of synergy scores across an entire experiment. The inclusion of positive inhibition gating or an Idata multiplier removes noise near the zero effect level, and biases results for synergistic interactions at that occur at high activity levels.
(§7) Loewe Volume (Loewe Vol) is used to assess the overall magnitude of the combination interaction in excess of the Loewe additivity model. Loewe Volume is particularly useful when distinguishing synergistic increases in a phenotypic activity (positive Loewe Volume) versus synergistic antagonisms (negative Loewe Volume). […] This model defines additivity as a non-synergistic combination interaction where the combination dose matrix surface should be indistinguishable from either drug crossed with itself. The calculation for Loewe additivity is:

OCI-Ly3 = test: as above; settings: combination with Compound 1; OCI-Ly3; 72 h
Experimental: as §1, §2, §3, §4, §5, §6, §7

U-2932 = test: as above; settings: combination with Compound 1, 72 h
TMD8 = test: as above; settings: combination with Compound 1; TMD8; 72 h
OCI-Ly7 = test: as above; settings: combination with Compound 1, 72 h
SU-DHL-4-epst = test: as above; settings: combination with Compound 1, 72 h
DOHH-2 = test: as above; settings: combination with Compound 1, 72 h
Farage = test: as above; settings: combination with Compound 1; Farage; 72 h
SU-DHL-10-epst = test: as above; settings: combination with Compound 1, 72 h
Experimental: as §1
The measure of effect in the experiment can be the inhibition of cellular response relative to the untreated level (vehicle alone). […] The inhibition ranges from 0% at the untreated level to 100% when T=0. Inhibition levels are negative for agents that actually increase levels.
as §3, §4, §5, §6, §7

RL = test: as above; settings: combination with Compound 1, 72 h
KARPAS-422 = test: as above; settings: combination with Compound 1, 72 h
WSU-NHL = test: as above; settings: combination with Compound 1, 72 h
KARPAS-299 = test: as above; settings: combination with Compound 1
GRANTA-519 = test: as above; settings: combination with Compound 1
Experimental: as §1, §2, §3, §4, §5, §6
(§8) Loewe Volume (Loewe Vol) is used to assess the overall magnitude of the combination interaction in excess of the Loewe additivity model. Loewe Volume is particularly useful when distinguishing synergistic increases in a phenotypic activity (positive Loewe Volume) versus synergistic antagonisms (negative Loewe Volume). […] This model defines additivity as a non-synergistic combination interaction where the combination dose matrix surface should be indistinguishable from either drug crossed with itself.

Jeko-1 = test: as above; settings: combination with Compound 1
Mino = test: as above; settings: combination with Compound 1
Experimental: as §1, §2, §3, §4, §5, §6, §8

NCI-H929 = test: as above; settings: combination with Compound 1
[1] = as above; settings: combination with Compound 1; OPM-2
OMP-2 = test: as above; settings: combination with Compound 1; OPM-2
RPMI-8226 = test: as above; settings: combination with Compound 1
Experimental: as §1, §2, §3, §4, §5, §6, §8

CCCCCCCCCCCCCCCCCCOP(=O)([O-])OC1CC[N+](C)(C)CC1 [perifosine, 1,1-dimethylpiperidinium-4-yl octadecyl phosphate]
S (S=0.01 to <0.5): CI50 inhibition (HH) | CI50 growth inhibition (SU-DHL-4-epst) | CI50 growth inhibition (Farage) | CI50 growth inhibition (GRANTA-519)
A2 (A2=1 to <3): Synergy Score inhibition (HH) | Synergy Score growth inhibition (TMD8) | Synergy Score inhibition (TMD8) | Synergy Score growth inhibition (OCI-Ly7) | Synergy Score growth inhibition (SU-DHL-4-epst) | Synergy Score inhibition (DOHH-2) | Synergy Score inhibition (Farage) | Synergy Score growth inhibition (SU-DHL-10-epst) | Synergy Score inhibition (SU-DHL-10-epst) | Synergy Score inhibition (WSU-NHL) | Synergy Score growth inhibition (GRANTA-519) | Synergy Score growth inhibition (Mino) | Synergy Score growth inhibition (NCI-H929) | Synergy Score growth inhibition (OMP-2)
T (T=0.5 to <0.7): CI50 growth inhibition (TMD8) | CI50 inhibition (TMD8) | CI50 growth inhibition (DOHH-2) | CI50 inhibition (Farage) | CI50 growth inhibition (SU-DHL-10-epst) | CI50 inhibition (WSU-NHL) | CI50 growth inhibition (RPMI-8226)
A3 (A3=>3): Synergy Score growth inhibition (HH) | Synergy Score growth inhibition (HBL-1) | Synergy Score growth inhibition (DOHH-2) | Synergy Score growth inhibition (Farage) | Synergy Score growth inhibition (WSU-NHL) | Synergy Score growth inhibition (RPMI-8226)
A1 (A1=0.0001 to <1): Synergy Score inhibition (HBL-1) | Synergy Score growth inhibition (OCI-Ly3) | Synergy Score inhibition (OCI-Ly3) | Synergy Score growth inhibition (U-2932) | Synergy Score inhibition (U-2932) | Synergy Score inhibition (OCI-Ly7) | Synergy Score inhibition (SU-DHL-4-epst) | Synergy Score growth inhibition (RL) | Synergy Score inhibition (RL) | Synergy Score growth inhibition (KARPAS-422) | Synergy Score inhibition (KARPAS-422) | Synergy Score growth inhibition (KARPAS-299) | Synergy Score inhibition (KARPAS-299) | Synergy Score inhibition (GRANTA-519) | Synergy Score growth inhibition (Jeko-1) | Synergy Score inhibition (Jeko-1) | Synergy Score inhibition (Mino) | Synergy Score inhibition (NCI-H929) | Synergy Score inhibition (OMP-2) | Synergy Score inhibition (RPMI-8226)
W (W=≥1): CI50 growth inhibition (HH) | CI50 inhibition (HBL-1) | CI50 growth inhibition (OCI-Ly3) | CI50 inhibition (OCI-Ly3) | CI50 growth inhibition (U-2932) | CI50 inhibition (U-2932) | CI50 inhibition (OCI-Ly7) | CI50 growth inhibition (RL) | CI50 inhibition (RL) | CI50 growth inhibition (KARPAS-422) | CI50 growth inhibition (KARPAS-299) | CI50 inhibition (KARPAS-299) | CI50 inhibition (GRANTA-519) | CI50 inhibition (Jeko-1) | CI50 inhibition (Mino) | CI50 inhibition (NCI-H929) | CI50 inhibition (OMP-2)
U (U=0.7 to <1): CI50 growth inhibition (HBL-1) | CI50 growth inhibition (OCI-Ly7) | CI50 inhibition (SU-DHL-4-epst) | CI50 inhibition (DOHH-2) | CI50 inhibition (SU-DHL-10-epst) | CI50 inhibition (KARPAS-422) | CI50 growth inhibition (WSU-NHL) | CI50 growth inhibition (Jeko-1) | CI50 growth inhibition (Mino) | CI50 growth inhibition (NCI-H929) | CI50 growth inhibition [1] | CI50 inhibition (RPMI-8226)
